Results taken from patent US6177592A, “Compounds” (priority 1997, dated 2001).

How the values were obtained:
[1] = test system: heat shock protein of 70 kDa (HSP70); experiment: Induction of heat shock protein of 70 kDa in HL-60; assay type: cell-based, human; design: key: -: no induction was noted; ±: the induction was slight; indicates degree of intensity of induction and the more the numbers of "+", the more the intensity of induction; ++: the more the numbers of "+", the more the intensity of induction; +++: the more the numbers of "+", the more the intensity of induction; conditions: 5 μM CM
[2] = test system: RAW264.7 cells; experiment: Inhibition of LPS-caused cell damage in RAW264.7; assay type: cell-based, mouse; conditions: RAW 264.7
Method: Inhibition activity of GM to NO production and to cell damage was measured as follows using mouse macrophage cell strain RAW264.7 cells (ATCC TIB 71) and LPS.
Dulbecco-modified Eagle's medium (manufactured by Life Technologies Oriental; 11054-020) containing 2 mM of L-glutamine (manufactured by Life Technologies Oriental; 25030-149) containing no Phenol Red containing 5 ml of 10% fetal calf serum (manufactured by Gibco) containing 1.5×10^6 cells of RAW 264.7 was incubated in a six-well tissue culture plate in the presence of 5% carbon dioxide gas at 37° C. for 12 hours, 50μl of 50μg/ml LPS (manufactured by Sigma; L-2012) was added, then each 50 μl of 250 )i M Mn or 100 μH GM was added to each well, incubation was further continued for additional 12 hours and, after that, NO2^- produced by oxidation of NO in the medium and amount of viable cell numbers were measured. Incidentally, a sect-Lon where no LPS was added and a section where no GM was added were prepared as controls.

[3] = test system: antigen-specific IgE; experiment: Antigen-specific IgE production (48-hour rat PCA); assay type: in vivo, rat (Wistar); conditions: for IgE Titer: three days, control 64
Method: Yale rats of Wistar strain of five weeks age (one group consisting of five rats) (Nippon SLC) were sensitized by an intraperitoneal injection of 100 μl of 0.01% solution of egg white albumin (Sigma) in an aqueous physiological saline solution and 100 μl of Alum (trade name: Imject Alum; Pierce) and, after 14 days, blood was collected from abdominal artery.
The collected blood was centrifuged (at 2000 rpm for five minutes), plasma was separated and the amount of antigen-specific IgE was measured by a 48-hour rat passive cutaneous anaphylaxis (PCA) reaction.
Thus, serum was diluted with a physiological saline solution in a successively doubling manner ranging from 1/4 to 1/64 and each 0.1 ml thereof was subcutaneously injected to hair-clipped back of male rats of Wistar strain of seven weeks age. After 48 hours from the subcutaneous injection, 1 ml of a mixture of 0.05% egg white albumin and 0.5% Evans Blue (manufactured by Nacalai Tesque) was injected from tail vein. After 30 minutes from the injection from the tail vein, rats were subjected to decapitation and to exanguinated death, blue spots appeared on the back were observed, the spots with a diameter of 5 mm or more were judged to be positive and the highest dilution was adopted as an IgE titer.
In the GM-administered groups, 3 mg/kg or 30 mg/kg of GM was intraperitoneally administered once daily for three days from the antigen-sensitized day while, in the control group, distilled water was intraperitoneally administered by the same manner.

[4] = test system: tumor necrosis factor-α; experiment: TNF-α in serum of LPS endotoxin-shock mice; assay type: in vivo, mouse (CDF1); conditions: for TNF in serum (Mean ± SE): n=5, control 2.32 ± 0.15
Method: (1) LPS (lipopolysaccharide manufactured by Sigma) was intraperitoneally injected (10 μg/mouse) to female CDF1 mice of eight weeks age (purchased from Nippon SLC at seven weeks age with bodyweight of 20 g followed by subjecting a preliminary breeding for one week at our end) and endotoxin-shock models were prepared. GM was orally administered at the dose of 100 and 1000 mg/kg at thirty minutes before administration of LPS. After one hour from the administration of LPS, blood was collected from the mice, serum was separated and amount of the tumor necrosis factor-α in the serum was measured by a commercially available ELISA kit (manufactured by Endogen).

[5] = test system: CEM-3B cells (CEM-SS cells infected with HIV-1IIIB); experiment: Survival rate of HIV-1IIIB-infected CEM-SS cells (CEM-3B); assay type: cell-based; conditions: for survival rate of cells: one day
Method: GM (0, 4, 8 or 16 μM) was added to 2×10^5 cell/ml of CEM-SS cells (ATCC CCL-119) and to CEM-SS cells infected with HIV-1IIIB (wherein not less than 90% of the CEM-SS cells were infected with the HIV-1IIIB; hereinafter, referred to as CEM-3B) incubation was conducted for one day, viable cell numbers and dead cell numbers were counted and survival cell rate was calculated.

Row | SMILES | Induction of Heat Shock Protein [1] | inhibition of cell damage caused by LPS [2] | IgE Titer ([3]; 3 mg/kg/day i.p.) | IgE Titer ([3]; 30 mg/kg/day i.p.) | inhibiting activity to IgE production (in words) ([3]; rat, in vivo) | TNF in serum (Mean ± SE) ([4]; 100 mg/kg oral) | inhibition of production of tumor necrosis factor (in words) ([4]; 1000 mg/kg oral) | TNF in serum (Mean ± SE) ([4]; 1000 mg/kg oral) | survival rate of cells ([5]; 16 μM, compared with CEM-SS) | survival rate of cells ([5]; 4 or 8 μM) | selective cytocidal effect to HIV-infected cells, antiviral action to HIV ([5]; Example 15)
1 | N[C@@H](CSC1C=C(O)C(=O)C1)C(=O)O (some centres unmarked) [CM] | - |  |  |  |  |  |  |  |  |  | 
2 | N[C@@H](CCC(=O)N[C@@H](CSC1C=C(O)C(=O)C1)C(=O)NCC(=O)O)C(=O)O (some centres unmarked) [GM, 2-hydroxy-4-glutathion-S-yl-2-cyclopenten-1-one] |  | inhibited the cell damage in RAW 264.7 cells caused by LPS | 32 | 8 | inhibited by administration of GM in a dose-dependent manner | 2.22 ± 0.26 ng/mL | significantly inhibited | 1.16 ± 0.26 ng/mL | decreased more significantly | the survival rate significantly decreased depending upon the concentration | selective cytocidal effect to HIV-infected cells
